Measured values: ChEMBL document CHEMBL1159026, “Brominated beta-carbolines from the marine tunicate Eudistoma album” (1992)
≈ marks a conversion by molar mass, not a printed value.

Tests used:
Assay type in all cases: functional
[1] = test system: KB; assay: Cytotoxicity against human KB cells at 0.005 to 10 ug/ml
[2] = test system: KB; assay: Cytotoxicity against human KB cells at 10 ug/ml
[3] = test system: KB; assay: Cytotoxicity against human KB cells at 5 ug/ml
[4] = test system: KB; assay: Cytotoxicity against human KB cells at 1 ug/ml
[5] = test system: KB; assay: Cytotoxicity against human KB cells; conditions: read-out: ED50 (the source's name)

Compound | EC50 ([1]; Homo sapiens, KB, read-out: ED50 (the source's name)) [µg/mL] | Activity [2] [%] | Activity [3] [%] | Activity [4] [%] | EC50 [5] [µg/mL] | Activity [1] [%]
CC(C)CC(N)c1nccc2c1[nH]c1cc(Br)ccc12 (centres undefined) [EUDISTALBIN A] | 3.2 (≈ 9.63 µM) | 100 | 92 | 0 | 3.2 (≈ 9.63 µM) | –
CC(C)CC(=O)c1nccc2c1[nH]c1cc(Br)ccc12 [EUDISTALBIN B] | – | 0 | – | 0 | – | –
N[C@@H]1CSCON2CCc3c([nH]c4ccc(O)c(Br)c34)[C@H]12 [EUDISTOMIN E] | – | – | – | – | < 0.005 | 100
